Reference: patent US10098867B2, “Use of phytocannabinoids in the treatment of ovarian carcinoma” (GW Research Limited, priority 2013, dated 2018)

What was measured:
[1] = tested on: ovarian carcinoma cell line, A2780; experiment: MTT cell viability assay, single phytocannabinoids (Example 1); type: cell-based; conditions: A2780 cells; for IC50: MTT
Description: (§1) An ovarian carcinoma cell line, A2780 was grown and maintained in RPMI 1640 medium supplemented with 10% fetal bovine serum at 37° C., 5% CO2. The cells were plated in 96-well culture plates at a density of 1×10^4 cells/well and allowed to adhere at 37° C. for 24 hours.
The cells were starved with 1% serum overnight, then treated with various concentrations of different phytocannabinoid ([…]) for various incubation periods.
The different phytocannabinoids tested were: cannabidiol (CBD); cannabidiol acid (CBDA); cannabigerol (CBG); cannabigerolic acid (CBGA); cannabigerol propyl variant (CBGV); and tetrahydrocannabivarin (THCV).
A cell viability assay, MTT, was performed following four different incubation times of 24 hours, 48 hours, 72 hours and 96 hours.
(§2) The supernatant was removed and MTT (3-(4,5-dimethylthiazol-2-yl)-2,5-diphenyltetrazolium bromide) was added for 4 hours. The ability of cells to form formazan crystals by active mitochondrial respiration was determined by using a Microplate reader after dissolving the crystals in DMSO.
(§3) Cytotoxicity was expressed as a relative percentage of the absorbance measured at 540 nm in the control and drug-treated cells. IC50 values were also calculated.
(§4) In all experiments data were presented as the mean and analysed using ANOVA followed by Dunnet's t-test; n=4.

[2] = tested on: ovarian carcinoma cell line, A2780; experiment: MTT cell viability assay, combinations of phytocannabinoids (Example 2); type: cell-based; conditions: Homo sapiens, A2780 cells
Description: as §1
The different phytocannabinoid combinations that were tested were: A: cannabidiol (CBD) in combination with tetrahydrocannabivarin (THCV) and B: CBD in combination with cannabigerol (CBG).
The cells were starved with 1% serum overnight. In Experiment A various doses of CBD (1 nM-10 μM) were tested in the absence or presence of 1 hours pre-treatment of THCV (1 μM) for various incubation periods. In Experiment B various doses of CBD (1 nM-10 μM) were tested in the absence or presence of CBG (1 nM-100 μM) for various incubation periods.
A cell viability assay, MTT, was performed following four different incubation times of 24 hours, 48 hours (CBG combination only), 72 hours and 96 hours.
as §2, §3, §4

[3] = Homo sapiens, 24 hours incubation
[4] = Homo sapiens, 48 hours incubation
[5] = Homo sapiens, 72 hours incubation
[6] = A2780, 24 h, Experiment A (CBD with or without 1 hour pre-treatment with THCV 1 μM), 24 hours
[7] = A2780, 72 h, Experiment A (CBD with or without 1 hour pre-treatment with THCV 1 μM), 72 hours
[8] = A2780, 96 h, Experiment A (CBD with or without 1 hour pre-treatment with THCV 1 μM), 96 hours
[9] = Homo sapiens, 96 hours incubation
[10] = A2780, 24 h, Experiment B (CBD in absence or presence of CBG), 24 hours
[11] = A2780, 48 h, Experiment B (CBD in absence or presence of CBG), 48 hours
[12] = A2780, 72 h, Experiment B (CBD in absence or presence of CBG), 72 hours
[13] = A2780, 96 h, Experiment B (CBD in absence or presence of CBG), 96 hours
[14] = 24 hours after the cannabinoids were added

Row | Compound | IC50 [1, 3] [µM] | IC50 [1, 4] [µM] | IC50 [1, 5] [µM] | IC50 ([1]; 24 hours incubation) [µM] | IC50 ([1]; 48 hours incubation) [µM] | IC50 ([1]; 72 hours incubation) [µM] | IC50 [2, 6] [µM] | IC50 [2, 7] [µM] | IC50 [2, 8] [µM] | IC50 [1, 9] [µM] | IC50 [2, 10] [µM] | IC50 [2, 11] [µM] | IC50 [2, 12] [µM] | IC50 [2, 13] [µM] | potency in words [1, 14] | potency in words ([1]; after 48 hours)
1 | CCCc1cc(O)c(C/C=C(\C)CCC=C(C)C)c(O)c1 [CBGV, Cannabigerol propyl variant] | 6 | 3.5 | 4 |  |  |  |  |  |  |  |  |  |  |  |  | 
2 | Cannabigerolic acid [CBGA] |  |  |  | 12.5 | 9.9 | 9.25 |  |  |  |  |  |  |  |  |  | 
3 | CCCc1cc(O)c2c(c1)OC(C)(C)[C@@H]1CCC(C)=C[C@@H]21 [THCV, Tetrahydrocannabivarin] | 8 | 5.75 | 8.75 |  |  |  | 16.2 | 14.8 | 10.5 | 9 |  |  |  |  |  | 
4 | CCCCCc1cc(O)c(C/C=C(\C)CCC=C(C)C)c(O)c1 [CBG, Cannabigerol] | 2 | 0.83 | 0.85 |  |  |  |  |  |  | 3.38 | 13.9 | 9.48 | 9.96 | 8.96 | very potent | marginally more potent than CBD
5 | C=C(C)[C@@H]1CCC(C)=C[C@H]1c1c(O)cc(CCCCC)cc1O [CBD, Cannabidiol] | 0.98 | 0.95 | 1.9 |  |  |  | 12.5 | 5.87 | 5.62 | 3.63 | 11.8 | 6.85 | 7.92 | 4.43 | very potent | 
6 | C=C(C)[C@@H]1CCC(C)=C[C@H]1c1c(O)cc(CCCCC)c(C(=O)O)c1O [CBDA, Cannabidiolic acid] | 16 | 9.5 | 10 |  |  |  |  |  |  | 11.8 |  |  |  |  |  | 
